# Data as given in ChEMBL document CHEMBL4396913, “Synthesis and biological evaluation of hybrid quinolone-based quaternary ammonium antibacterial agents” (Eur J Med Chem, 2019).
# Active and inactive are the calls of the source. No cut-off for these calls is given here.
# What was measured:
# [1] = Lipophilicity, log k of the compound at 100 ug/ml by micellar electrokinetic chromatography; format: physicochemical
# [2] = tested on: Staphylococcus aureus; experiment: Antibacterial activity against Staphylococcus aureus ATCC 6538 cultured in MH medium assessed as reduction in bacterial growth incubated for 48 hrs by microbroth dilution method; format: functional; settings: ATCC 6538, 48 h
# [3] = tested on: Staphylococcus aureus; experiment: Bactericidal activity against Staphylococcus aureus ATCC 6538 cultured in MH medium assessed as reduction in bacterial survival incubated for 48 hrs by microbroth dilution method; format: functional; settings: ATCC 6538, 48 h
# [4] = tested on: Staphylococcus aureus; experiment: Antibacterial activity against methicillin resistant Staphylococcus aureus N315 cultured in MH medium assessed as reduction in bacterial growth incubated for 48 hrs by microbroth dilution method; format: functional; settings: N315, 48 h
# [5] = tested on: Staphylococcus aureus; experiment: Bactericidal activity against methicillin resistant Staphylococcus aureus N315 cultured in MH medium assessed as reduction in bacterial survival incubated for 48 hrs by microbroth dilution method; format: functional; settings: N315, 48 h
# [6] = tested on: Staphylococcus epidermidis; experiment: Antibacterial activity against Staphylococcus epidermidis ATCC 14990 cultured in MH medium assessed as reduction in bacterial growth incubated for 48 hrs by microbroth dilution method; format: functional; settings: ATCC 14990, 48 h
# [7] = tested on: Staphylococcus epidermidis; experiment: Bactericidal activity against Staphylococcus epidermidis ATCC 14990 cultured in MH medium assessed as reduction in bacterial survival incubated for 48 hrs by microbroth dilution method; format: functional; settings: ATCC 14990, 48 h
# [8] = tested on: Enterococcus hirae; experiment: Antibacterial activity against Enterococcus hirae ATCC 1052 cultured in BHI medium assessed as reduction in bacterial growth incubated for 48 hrs by microbroth dilution method; format: functional; settings: ATCC 1052, 48 h
# [9] = tested on: Enterococcus hirae; experiment: Bactericidal activity against Enterococcus hirae ATCC 1052 cultured in BHI medium assessed as reduction in bacterial survival incubated for 48 hrs by microbroth dilution method; format: functional; settings: ATCC 1052, 48 h
# [10] = tested on: Bacillus spizizenii; experiment: Antibacterial activity against Bacillus subtilis ATCC 6633 cultured in MH medium assessed as reduction in bacterial growth incubated for 48 hrs by microbroth dilution method; format: functional; settings: ATCC 6633, 48 h
# [11] = tested on: Bacillus spizizenii; experiment: Bactericidal activity against Bacillus subtilis ATCC 6633 cultured in MH medium assessed as reduction in bacterial survival incubated for 48 hrs by microbroth dilution method; format: functional; settings: ATCC 6633, 48 h
# [12] = tested on: Escherichia coli; experiment: Antibacterial activity against Escherichia coli ATCC 8739 cultured in MH medium assessed as reduction in bacterial growth incubated for 48 hrs by microbroth dilution method; format: functional; settings: ATCC 8739, 48 h
# [13] = tested on: Escherichia coli; experiment: Bactericidal activity against Escherichia coli ATCC 8739 cultured in MH medium assessed as reduction in bacterial survival incubated for 48 hrs by microbroth dilution method; format: functional; settings: ATCC 8739, 48 h
# [14] = tested on: Pseudomonas aeruginosa; experiment: Antibacterial activity against Pseudomonas aeruginosa ATCC 9027 cultured in MH medium assessed as reduction in bacterial growth incubated for 48 hrs by microbroth dilution method; format: functional; settings: ATCC 9027, 48 h
# [15] = tested on: Pseudomonas aeruginosa; experiment: Bactericidal activity against Pseudomonas aeruginosa ATCC 9027 cultured in MH medium assessed as reduction in bacterial survival incubated for 48 hrs by microbroth dilution method; format: functional; settings: ATCC 9027, 48 h
# [16] = tested on: Proteus vulgaris; experiment: Antibacterial activity against Proteus vulgaris NCTC 4635 cultured in MH medium assessed as reduction in bacterial growth incubated for 48 hrs by microbroth dilution method; format: functional; settings: NCTC 4635, 48 h
# [17] = tested on: Proteus vulgaris; experiment: Bactericidal activity against Proteus vulgaris NCTC 4635 cultured in MH medium assessed as reduction in bacterial survival incubated for 48 hrs by microbroth dilution method; format: functional; settings: NCTC 4635, 48 h
# [18] = tested on: Staphylococcus aureus; experiment: Antibacterial activity against methicillin resistant Staphylococcus aureus 6347 cultured in MH medium assessed as reduction in bacterial growth incubated for 48 hrs by microbroth dilution method; format: functional; settings: Staphylococcus aureus, 6347, 48 h
# [19] = tested on: Staphylococcus aureus; experiment: Bactericidal activity against methicillin resistant Staphylococcus aureus 6347 cultured in MH medium assessed as reduction in bacterial survival incubated for 48 hrs by microbroth dilution method; format: functional; settings: Staphylococcus aureus, 6347, 48 h
# [20] = tested on: Staphylococcus epidermidis; experiment: Antibacterial activity against methicillin resistant Staphylococcus epidermidis ATCC 13199 cultured in MH medium assessed as reduction in bacterial growth incubated for 48 hrs by microbroth dilution method; format: functional; settings: ATCC 13199, 48 h
# [21] = tested on: Staphylococcus epidermidis; experiment: Bactericidal activity against methicillin resistant Staphylococcus epidermidis ATCC 13199 cultured in MH medium assessed as reduction in bacterial survival incubated for 48 hrs by microbroth dilution method; format: functional; settings: ATCC 13199, 48 h
# [22] = tested on: Streptococcus pneumoniae; experiment: Antibacterial activity against Streptococcus pneumoniae cultured in MH medium assessed as reduction in bacterial growth incubated for 48 hrs by microbroth dilution method; format: functional
# [23] = tested on: Streptococcus pneumoniae; experiment: Bactericidal activity against Streptococcus pneumoniae cultured in MH medium assessed as reduction in bacterial survival incubated for 48 hrs by microbroth dilution method; format: functional
# [24] = tested on: Serratia marcescens; experiment: Antibacterial activity against Serratia marcescens ATCC 12795 cultured in MH medium assessed as reduction in bacterial growth incubated for 48 hrs by microbroth dilution method; format: functional; settings: ATCC 12795, 48 h
# [25] = tested on: Serratia marcescens; experiment: Bactericidal activity against Serratia marcescens ATCC 12795 cultured in MH medium assessed as reduction in bacterial survival incubated for 48 hrs by microbroth dilution method; format: functional; settings: ATCC 12795, 48 h
# [26] = tested on: Pseudomonas aeruginosa; experiment: Antibiofilm activity against Pseudomonas aeruginosa ATCC 9027 assessed as biofilm formation at antibacterial MIC incubated for 24 hrs compound added prior to bacterial biofilm formation by total biomass crystal violet staining-based method relative to control; format: functional
# [27] = tested on: Staphylococcus aureus; experiment: Antibiofilm activity against Staphylococcus aureus ATCC 6538 assessed as biofilm formation at antibacterial MIC incubated for 24 hrs compound added prior to bacterial biofilm formation by total biomass crystal violet staining-based method relative to control; format: functional
# [28] = tested on: Pseudomonas aeruginosa; experiment: Antibiofilm activity against Pseudomonas aeruginosa ATCC 9027 assessed as biofilm formation at 0.5 times antibacterial MIC incubated for 24 hrs compound added prior to bacterial biofilm formation by total biomass crystal violet staining-based method relative to control; format: functional
# [29] = tested on: Staphylococcus aureus; experiment: Antibiofilm activity against Staphylococcus aureus ATCC 6538 assessed as biofilm formation at 0.5 times antibacterial MIC incubated for 24 hrs compound added prior to bacterial biofilm formation by total biomass crystal violet staining-based method relative to control; format: functional
# [30] = tested on: Pseudomonas aeruginosa; experiment: Biofilm degradation activity against Pseudomonas aeruginosa ATCC 9027 assessed as biofilm formation at antibacterial MIC incubated for 24 hrs compound added post-biofilm formation by total biomass crystal violet staining-based method; format: functional
# [31] = tested on: Pseudomonas aeruginosa; experiment: Biofilm degradation activity against Pseudomonas aeruginosa ATCC 9027 assessed as biofilm formation at 2 times antibacterial MIC incubated for 24 hrs compound added post-biofilm formation by total biomass crystal violet staining-based method; format: functional
# [32] = tested on: Pseudomonas aeruginosa; experiment: Biofilm degradation activity against Pseudomonas aeruginosa ATCC 9027 assessed as biofilm formation at 4 times antibacterial MIC incubated for 24 hrs compound added post-biofilm formation by total biomass crystal violet staining-based method; format: functional
# [33] = tested on: Staphylococcus aureus; experiment: Biofilm degradation activity against Staphylococcus aureus ATCC 6538 assessed as biofilm formation at antibacterial MIC incubated for 24 hrs compound added post-biofilm formation by total biomass crystal violet staining-based method; format: functional
# [34] = tested on: Staphylococcus aureus; experiment: Biofilm degradation activity against Staphylococcus aureus ATCC 6538 assessed as biofilm formation at 2 times antibacterial MIC incubated for 24 hrs compound added post-biofilm formation by total biomass crystal violet staining-based method; format: functional
# [35] = tested on: Staphylococcus aureus; experiment: Biofilm degradation activity against Staphylococcus aureus ATCC 6538 assessed as biofilm formation at 4 times antibacterial MIC incubated for 24 hrs compound added post-biofilm formation by total biomass crystal violet staining-based method; format: functional
# [36] = molecular target: DNA gyrase (Escherichia coli) (UniProt P0AES6+P0AES4); experiment: Inhibition of Escherichia coli DNA gyrase super-coiling activity using relaxed pNO1 DNA as substrate assessed as enzyme residual activity at 1 uM incubated for 30 mins by fluorescence assay relative to control; format: protein-complex assay
# [37] = tested on: Escherichia coli; experiment: Induction of inner membrane permeabilization in Escherichia coli ATCC 8739 assessed as increase in release of cytoplasmic beta galactosidase using ONPG as substrate at 128 ug/ml incubated for 90 mins compound added with bacterial cells after lag time of about 10 mins by spectrophotometry; format: organism-based
# [38] = tested on: Staphylococcus aureus; settings: ATCC 25923, 10 to 40 uM
# Description: Antibiofilm activity Staphylococcus aureus ATCC 25923 pre-formed mature biofilm assessed as reduction in biofilm viability at 10 to 40 uM incubated for 24 hrs compound added post-biofilm formation by resazurin staining based assay relative to control
# [39] = tested on: Staphylococcus aureus; settings: ATCC 25923, 10 to 40 uM; remark: listed apart in the source
# Description: Antibiofilm activity Staphylococcus aureus ATCC 25923 pre-formed mature biofilm assessed as reduction in biofilm biomass at 10 to 40 uM incubated for 24 hrs compound added post biofilm formation by crystal violet staining based assay relative to control
Structure (SMILES),MIC [2] [µg/mL],MBC [3] [µg/mL],MIC [4] [µg/mL],MIC [6] [µg/mL],MBC [7] [µg/mL],MIC [8] [µg/mL],MBC [9] [µg/mL],MIC [10] [µg/mL],MBC [11] [µg/mL],MIC [12] [µg/mL],MBC [13] [µg/mL],MBC [15] [µg/mL],MIC [16] [µg/mL],MBC [17] [µg/mL],MIC [18] [µg/mL],MBC [19] [µg/mL],MIC [22] [µg/mL],MBC [23] [µg/mL],MIC [24] [µg/mL],MBC [25] [µg/mL],further results
CCn1cc(C(=O)O)c(=O)c2cc(F)c(N3CCNC(C)C3)c(F)c21 (centres undefined) [LOMEFLOXACIN],1,1,0.5,1,2,128,128,0.125,0.125,0.063,0.125,1,0.008,0.008,0.5,1,16,> 512,0.5,0.5,log K [1]: 0.0766; MBC [5]: 1 µg/mL; MIC [14]: 1 µg/mL; MIC [20]: 0.25 µg/mL; MBC [21]: 0.25 µg/mL; Activity [26]: 2%; Activity [27]: 9%; Activity [28]: 6%; Activity [29]: 63%; Activity [30]: 40%; Activity [31]: 36%; Activity [32]: 34%; Activity [33]: 58%; Activity [34]: 12%; Activity [35]: 6%
O=C(O)c1cn(C2CC2)c2cc(N3CCNCC3)c(F)cc2c1=O [CIPROFLOXACIN],0.25,0.5,1,0.25,0.25,128,128,0.032,0.063,0.032,0.032,0.5,0.008,0.008,0.25,0.5,8,> 512,0.125,0.125,Activity [36]: 7%; Activity [37]: Active; Activity [26]: 3%; Activity [27]: 3%; Activity [28]: 7%; Activity [29]: 5%; Activity [30]: 76%; Activity [31]: 72%; Activity [32]: 64%; Activity [33]: 21%; Activity [34]: 17%; Activity [35]: 31%; inhibition [38]: Active; inhibition [39]: Active
CCn1cc(C(=O)O)c(=O)c2cc(F)c(N3CCNCC3)nc21 [ENOXACIN],1,1,1,0.5,2,64,64,0.125,0.125,0.25,0.5,0.5,0.032,0.063,0.5,1,32,> 512,0.25,0.25,log K [1]: 0.1564; MBC [5]: 1 µg/mL; MIC [14]: 0.5 µg/mL; MIC [20]: 0.25 µg/mL; MBC [21]: 0.25 µg/mL; Activity [26]: 7%; Activity [27]: 29%; Activity [28]: 27%; Activity [29]: 27%; Activity [30]: 46%; Activity [31]: 49%; Activity [32]: 49%; Activity [33]: 45%; Activity [34]: 28%; Activity [35]: 8%
